Assay results from patent US20030228308A1, “Isolated peptides which bind to HLA-Cw6 molecules and uses thereof” (priority 2002, published 2003).

How the values were obtained:
[1] = tested on: autologous EBV-B cells; assay: 51Cr release lysis of peptide-incubated autologous EBV-B cells by CTL clone; type: cell-based, human; conditions: effector:target 10:1, chromium release after 4 hours; for lysis (chromium release): 1 μg/ml of peptide, 15 minutes
Protocol: A set of 16 amino acid long, MAGE-1 derived peptides were prepared, using standard solid phase methodologies.
The peptides, which overlapped by 12 residues and covered the entire MAGE-1 amino acid sequence, were incubated with autologous EBV-B cells that had been labelled with Na(^51Cr)O4. The cells were incubated for 15 minutes in the presence of 1 μg/ml of peptide, and then tested for lysis with the T cells, at effector:target ratios of 10:1. Chromium release was measured after 4 hours.
It corresponds to amino acids 230-238 of MAGE-1. The shorter peptide was tested, in the same manner as the longer ones.

[2] = tested on: EBV-B cells; assay: TNF production by CTL co-cultured with fixed EBV-B cells pulsed with the shorter peptide; type: cell-based, human; conditions: PFA-fixed EBV-B cells pulsed with peptide; overnight co-culture with 5,000 CTLs; WEHI 164 clone 13 readout
Protocol: A MAGE-1 expressing tumor cell line, MZ2-MEL.43 was obtained from a patient who tested positive for HLA-Cw6 expression. These cells either were, or were not contacted with gamma interferon (100 U/ml), 48 hours before lysis studies. EBV-B cells were also used. These cells naturally produce TNF. They were fixed with PFA (1% in PBS) for 10 minutes at room temperature, washed twice with Hank's medium, and either pulsed or not with the shorter peptide.
Stimulator cells (2×10^4) were distributed in flat bottom microwells, and cocultured with 5,000 CTLs, in a total volume of 150 μl of complete IMDM, supplemented with 25 U/ml of IL-2.
TNF production was measured, following overnight co-culture, by testing for toxicity of supernatant on TNF sensitive, WEHI 164 clone 13 cells.

Sequence | lysis (chromium release) [1] | TNF production by CTL [2] | EC50 ([1]; read-out: peptide concentration giving half maximal lysis) [nM]
DGREHSAYGEPRKLLT (H. sapiens) [SEQ ID NO:1, amino acids 225-240 of MAGE-1] | positive |  | 
HSAYGEPRKLLTQDLV (H. sapiens) [SEQ ID NO:2, amino acids 229-244 of MAGE-1] | positive |  | 
SAYGEPRKL |  | did stimulate TNF production | ~6
